Test results published in US20260334439A1, “BCAT2 INHIBITORS” (Agios Pharmaceuticals, Inc., priority 2023, published 2026).

Assays:
BCAT2 [1] = target: T1, BCAT2 (Homo sapiens, UniProt O15382); assay: BCAT2 cell inhibition using engineered A549 cells (MUT KO, BCAT1 KO; 13C6-KMV formation by LC-MS/MS); assay type: cell-based; parameters: expressed endogenous BCAT2; endogenous in cells; host or cells: A549 cells, MUT knockout and BCAT1 knockout
T1 sequence (O15382 28-392): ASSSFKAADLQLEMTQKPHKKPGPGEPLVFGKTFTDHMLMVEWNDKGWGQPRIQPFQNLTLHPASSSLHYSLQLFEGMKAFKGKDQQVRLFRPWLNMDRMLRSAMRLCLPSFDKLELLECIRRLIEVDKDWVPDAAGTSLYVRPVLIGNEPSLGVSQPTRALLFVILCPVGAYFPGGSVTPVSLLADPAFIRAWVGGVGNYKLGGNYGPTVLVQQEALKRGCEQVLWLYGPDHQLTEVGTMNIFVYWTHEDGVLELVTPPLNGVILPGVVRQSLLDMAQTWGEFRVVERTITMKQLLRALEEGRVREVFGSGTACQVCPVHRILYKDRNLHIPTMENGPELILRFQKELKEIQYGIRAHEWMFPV
Procedure, shortened: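 Medium 13C6-KMV formation is read by LC-MS/MS after PFBHA derivatization with d8-KMV internal standard. Cells are CRISPR MUT/BCAT1 double-knockout A549 expressing endogenous BCAT2, given compound 15 min before labelled isoleucine (800 uM, added 1:1) for 24 h. CTG viability run in parallel; replicates averaged.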

BCAT2 [2] = target: T1, BCAT2; assay: BCAT2 in vitro enzyme inhibition assay (hBCAT2, glutamate dehydrogenase/diaphorase/resazurin coupled fluorescence read); assay type: biochemical; settings: hBCAT2, 1 h preincubation at 25° C., one hour reaction; average where tested multiple times
Procedure, shortened: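 hBCAT2 (0.33 μg/mL in mix) preincubated 1 h at 25 °C with compound (top 100 μM, 3-fold, 10 points) in Tris pH 8.0/NaCl/BSA; substrate mix added (L-leucine, α-ketoglutarate, GDH, NAD, diaphorase, resazurin), quenched with SDS after 1 h, fluorescence Ex 540/Em 590; duplicates, repeat tests averaged.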

SMILES | IC50 (BCAT2 [1]) [nM] | IC50 (BCAT2 [2]) [nM]
CO[C@H]1C[C@H](NC(=O)c2cc(Cl)ccn2)C[C@H](n2c(-c3ccccc3F)nc3cnc(-c4nc[nH]n4)cc32)C1 [Example 116, 4-chloro-N-((1R,3S,5S)-3-(2-(2-fluorophenyl)-6-(1H-1,2,4-triazol-3-yl)-1H-imidazo[4,5-c]pyridin-1-yl)-5-methoxycyclohexyl)picolinamide] | < 100 | < 100
O=C(N[C@H]1CCC[C@@H](n2c(-c3ccccc3F)nc3cnc(-c4nc[nH]n4)cc32)C1)c1cc(Cl)ccc1OCCO [Example 34, 5-chloro-N-((1S,3R)-3-(2-(2-fluorophenyl)-6-(1H-1,2,4-triazol-3-yl)-1H-imidazo[4,5-c]pyridin-1-yl)cyclohexyl)-2-(2-hydroxyethoxy)benzamide] | < 100 | < 100
O=C1c2cc(F)ccc2CN1[C@H]1CCC[C@@H](n2c(-c3ccccc3OCCO)nc3cnc(-c4nc[nH]n4)cc32)C1 [Example 173, 6-fluoro-2-((1S,3R)-3-(2-(2-(2-hydroxyethoxy)phenyl)-6-(1H-1,2,4-triazol-3-yl)-1H-imidazo[4,5-c]pyridin-1-yl)cyclohexyl)isoindolin-1-one] | < 100 | < 100
O=C(N[C@H]1CCC[C@@H](n2c(-c3ccccc3F)nc3cnc(-c4nc[nH]n4)cc32)C1)c1cc(Cl)ccc1CO [Example 40, 5-chloro-N-((1S,3R)-3-(2-(2-fluorophenyl)-6-(1H-1,2,4-triazol-3-yl)-1H-imidazo[4,5-c]pyridin-1-yl)cyclohexyl)-2-(hydroxymethyl)benzamide] | 100 to 500 | < 100
O=C(N[C@H]1CCC[C@@H](n2c(-c3ccccc3F)nc3cnc(-c4nc[nH]n4)cc32)[C@@H]1O)c1cc(F)ccc1F [Example 120, 2,5-difluoro-N-((1S,2R,3R)-3-(2-(2-fluorophenyl)-6-(1H-1,2,4-triazol-3-yl)-1H-imidazo[4,5-c]pyridin-1-yl)-2-hydroxycyclohexyl)benzamide] | < 100 | < 100
O=C(N[C@H]1CCC[C@@H](n2c(-c3ccccc3F)nc3cnc(-c4nc[nH]n4)cc32)C1)c1cc(Cl)ccn1 [Example 7, 4-chloro-N-((1S,3R)-3-(2-(2-fluorophenyl)-6-(1H-1,2,4-triazol-3-yl)-1H-imidazo[4,5-c]pyridin-1-yl)cyclohexyl)picolinamide] | < 100 | < 100
O=C1c2cc(Cl)ccc2CN1[C@H]1CCC[C@@H](n2c(-c3ccccc3F)nc3cnc(-c4nc[nH]n4)cc32)C1 [Example 168, 6-chloro-2-((1S,3R)-3-(2-(2-fluorophenyl)-6-(1H-1,2,4-triazol-3-yl)-1H-imidazo[4,5-c]pyridin-1-yl)cyclohexyl)isoindolin-1-one] | < 100 | < 100
O=C(N[C@H]1CCC[C@@H](n2c(-c3ncccc3F)nc3cnc(-c4nc[nH]n4)cc32)C1)c1cc(F)ccn1 [Example 16, 4-fluoro-N-((1S,3R)-3-(2-(3-fluoropyridin-2-yl)-6-(1H-1,2,4-triazol-3-yl)-1H-imidazo[4,5-c]pyridin-1-yl)cyclohexyl)picolinamide] | 100 to 500 | < 100
CC(C)Cc1nc2cnc(-c3nc[nH]n3)cc2n1[C@@H]1CCC[C@H](NC(=O)c2cc(Cl)ccc2OCCO)C1 [Example 78, 5-chloro-2-(2-hydroxyethoxy)-N-((1S,3R)-3-(2-isobutyl-6-(1H-1,2,4-triazol-3-yl)-1H-imidazo[4,5-c]pyridin-1-yl)cyclohexyl)benzamide] | 100 to 500 | < 100
COc1ccc(Cl)cc1C(=O)N[C@H]1CCC[C@@H](n2c(-c3ccccc3F)nc3cnc(-c4nc[nH]n4)cc32)[C@@H]1O [Example 102, 5-chloro-N-((1S,2R,3R)-3-(2-(2-fluorophenyl)-6-(1H-1,2,4-triazol-3-yl)-1H-imidazo[4,5-c]pyridin-1-yl)-2-hydroxycyclohexyl)-2-methoxybenzamide] | < 100 | < 100
O=C(N[C@H]1CCC[C@@H](n2c(-c3ncccc3F)nc3cnc(-c4nc[nH]n4)cc32)C1)c1cc(F)ccc1F [Example 80, 2,5-difluoro-N-((1S,3R)-3-(2-(3-fluoropyridin-2-yl)-6-(1H-1,2,4-triazol-3-yl)-1H-imidazo[4,5-c]pyridin-1-yl)cyclohexyl)benzamide] | 100 to 500 | < 100

Other lines, results leading:

IC50 (BCAT2 [1]) [nM] | IC50 (BCAT2 [2]) [nM] | SMILES
< 100 | < 100 | O=C1c2cc(Cl)ccc2OCN1[C@H]1CCC[C@@H](n2c(-c3ccccc3F)nc3cnc(-c4ncco4)cc32)[C@@H]1O [Example 215, 6-chloro-3-((1S,2S,3R)-3-(2-(2-fluorophenyl)-6-(oxazol-2-yl)-1H-imidazo[4,5-c]pyridin-1-yl)-2-hydroxycyclohexyl)-2,3-dihydro-4H-benzo[e][1,3]oxazin-4-one]
< 100 | < 100 | O=C1c2cc(F)ccc2CCN1[C@H]1CCC[C@@H](n2c(-c3ccccc3F)nc3cnc(-c4nc[nH]n4)cc32)C1 [Example 212, 7-fluoro-2-((1S,3R)-3-(2-(2-fluorophenyl)-6-(1H-1,2,4-triazol-3-yl)-1H-imidazo[4,5-c]pyridin-1-yl)cyclohexyl)-3,4-dihydroisoquinolin-1(2H)-one]
< 100 | < 100 | N#Cc1ccccc1-c1nc2ccc(-c3ncccn3)cc2n1[C@@H]1CCC[C@H](N2Cc3ccc(F)cc3C2=O)C1 [Example 239, 2-(1-((1R,3S)-3-(6-fluoro-1-oxoisoindolin-2-yl)cyclohexyl)-6-(pyrimidin-2-yl)-1H-benzo[d]imidazol-2-yl)benzonitrile]
< 100 | < 100 | O=C1c2cc(F)ccc2CN1[C@H]1CCC[C@@H](n2c(-c3c(F)cccc3F)nc3cnc(-n4nccn4)cc32)[C@@H]1O [Example 186, 2-((1S,2S,3R)-3-(2-(2,6-difluorophenyl)-6-(2H-1,2,3-triazol-2-yl)-1H-imidazo[4,5-c]pyridin-1-yl)-2-hydroxycyclohexyl)-6-fluoroisoindolin-1-one]
< 100 | < 100 | O=C1c2cc(F)ccc2OCN1[C@H]1CCC[C@@H](n2c(-c3ccccc3F)nc3cnc(-c4nc[nH]n4)cc32)C1 [Example 204, 6-fluoro-3-((1S,3R)-3-(2-(2-fluorophenyl)-6-(1H-1,2,4-triazol-3-yl)-1H-imidazo[4,5-c]pyridin-1-yl)cyclohexyl)-2,3-dihydro-4H-benzo[e][1,3]oxazin-4-one]
< 100 | < 100 | O=C1c2ccc(F)cc2C(=O)N1[C@H]1CCC[C@@H](n2c(-c3ccccc3F)nc3cnc(-c4nc[nH]n4)cc32)C1 [Example 182, 5-fluoro-2-((1S,3R)-3-(2-(2-fluorophenyl)-6-(1H-1,2,4-triazol-3-yl)-1H-imidazo[4,5-c]pyridin-1-yl)cyclohexyl)isoindoline-1,3-dione]
100 to 500 | < 100 | O=C1c2cccc(F)c2CN1[C@H]1CCC[C@@H](n2c(-c3ccccc3F)nc3cnc(-c4nc[nH]n4)cc32)C1 [Example 177, 4-fluoro-2-((1S,3R)-3-(2-(2-fluorophenyl)-6-(1H-1,2,4-triazol-3-yl)-1H-imidazo[4,5-c]pyridin-1-yl)cyclohexyl)isoindolin-1-one]
